Measurements taken from ChEMBL document CHEMBL1201862, “PubChem BioAssay data set” (2004).
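Five compound concentrations were applied to cells in 96-well plates for 48 hours; endpoints were derived by simple linear interpolation of the resulting dose-response curve. GI50 = concentration required for 50% inhibition of growth.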 Activity calls are given as the source filed them. Cut-off read from the data, not from the text of the source: active = GI50 up to about 1.1 µM and inactive = higher. Where a SMILES comes first, the peptide text is derived from it. [ ]: non-standard residue; d: D form. pGlu = O=C1CC[CH](C(=O)O)N1

Experiments:
Assay in all cases: DTP human tumour cell line panel, 48 h
[1] = tested on: UACC-62
[2] = tested on: TK-10
[3] = tested on: SNB-19
[4] = tested on: 786-0
[5] = tested on: HCT-116
[6] = tested on: U-251
[7] = tested on: SNB-75
[8] = tested on: CAKI-1
[9] = tested on: RPMI-8226
[10] = tested on: PC-3
[11] = tested on: SR
[12] = tested on: MDA-N
[13] = tested on: SF-268
[14] = tested on: DU-145
[15] = tested on: NCI-H23
[16] = tested on: BT-549
[17] = tested on: LOX IMVI
[18] = tested on: K562
[19] = tested on: SF-295
[20] = tested on: M19-MEL

Measured: GI50

CN(C)C(=O)C1CCN(Cc2c[nH]c3ccccc23)CC1
inactive: [1] > 100 µM | [2] > 100 µM | [3] > 100 µM | [4] > 100 µM | [5] > 100 µM | [6] > 100 µM | [7] > 100 µM | [8] > 100 µM | [9] > 100 µM | [10] > 100 µM | [11] > 100 µM | [12] > 100 µM | [13] > 100 µM | [14] > 100 µM | [15] > 100 µM | [16] > 100 µM | [17] > 100 µM | [18] > 100 µM | [19] > 100 µM

O=C1NC(=O)C(C(=O)C(=O)Nc2ccc(Br)cc2)C(=O)N1
inactive: [1] > 100 µM | [3] > 100 µM | [4] > 100 µM | [5] > 100 µM | [20] > 100 µM | [6] > 100 µM | [7] 12.1 µM | [9] > 100 µM | [11] > 100 µM | [13] > 100 µM | [15] > 100 µM | [17] > 100 µM | [18] > 100 µM | [19] > 100 µM

O=C(O)Cc1cccc2c1Oc1ccccc1S2
inactive: [1] > 100 µM | [2] > 100 µM | [3] > 100 µM | [4] > 100 µM | [5] > 100 µM | [20] > 100 µM | [6] > 100 µM | [7] > 100 µM | [9] > 100 µM | [13] > 100 µM | [15] > 100 µM | [17] > 100 µM | [18] > 100 µM | [19] > 100 µM

C=CC[P@]1(=O)O[C@H](c2ccccc2)C(C)N1C(C)C (stereo not given in full)
inactive: [1] > 100 µM | [2] > 100 µM | [3] > 100 µM | [4] > 100 µM | [5] > 100 µM | [20] > 100 µM | [6] > 100 µM | [7] > 100 µM | [9] > 100 µM | [11] > 100 µM | [13] > 100 µM | [15] > 100 µM | [17] > 100 µM | [18] > 100 µM | [19] > 100 µM

CC(NC(=O)C1CCC(=O)N1)C(=O)N1CCCC1C(N)=O (stereo not drawn) ([pGlu]-Ala-Pro-NH2; configuration not given here)
inactive: [1] > 100 µM | [2] > 100 µM | [3] > 100 µM | [4] 61.7 µM | [5] > 100 µM | [6] > 100 µM | [7] > 100 µM | [8] > 100 µM | [9] > 100 µM | [10] > 100 µM | [11] > 100 µM | [12] > 100 µM | [13] > 100 µM | [14] > 100 µM | [15] > 100 µM | [16] > 100 µM | [17] > 100 µM | [18] > 100 µM | [19] > 100 µM

CC(=O)O[C@H]1C(=O)[C@]2(C)[C@@H](OC(=O)OCC(O)CO)C[C@H]3OC[C@@]3(OC(C)=O)[C@H]2[C@H](OC(=O)c2ccccc2)[C@]2(O)C[C@H](OC(=O)[C@H](O)[C@@H](NC(=O)c3ccccc3)c3ccccc3)C(C)=C1C2(C)C (stereo not given in full) [PACLITAXEL CERIBATE]
active: [1] < 0.01 µM | [2] 0.0875 µM | [3] < 0.01 µM | [4] < 0.01 µM | [5] < 0.01 µM | [6] < 0.01 µM | [7] < 0.01 µM | [8] 0.893 µM | [9] < 0.01 µM | [10] < 0.01 µM | [11] < 0.01 µM | [12] < 0.01 µM | [13] < 0.01 µM | [14] < 0.01 µM | [15] < 0.01 µM | [16] < 0.0147 µM | [17] < 0.01 µM | [18] < 0.01 µM | [19] < 0.01 µM
